Measurements taken from patent publication US10201625B2, “Radiolabelled octreotate analogues as PET tracers” (IMPERIAL COLLEGE, priority 2011, dated 2019).
Where two headings read alike, the source gives them in different places.

Experiments:
somatostatin receptor = biological target: T1, somatostatin receptor (Rattus norvegicus, UniProt P30680); test: Competitive binding assay displacing [111In]-DTPA-Octreotide (OctreoScan) on AR42J tumour cells
T1 construct: endogenous in cells; host or cells: AR42J pancreatic tumour cells (whole cells)
T1 sequence (P30680 whole entry): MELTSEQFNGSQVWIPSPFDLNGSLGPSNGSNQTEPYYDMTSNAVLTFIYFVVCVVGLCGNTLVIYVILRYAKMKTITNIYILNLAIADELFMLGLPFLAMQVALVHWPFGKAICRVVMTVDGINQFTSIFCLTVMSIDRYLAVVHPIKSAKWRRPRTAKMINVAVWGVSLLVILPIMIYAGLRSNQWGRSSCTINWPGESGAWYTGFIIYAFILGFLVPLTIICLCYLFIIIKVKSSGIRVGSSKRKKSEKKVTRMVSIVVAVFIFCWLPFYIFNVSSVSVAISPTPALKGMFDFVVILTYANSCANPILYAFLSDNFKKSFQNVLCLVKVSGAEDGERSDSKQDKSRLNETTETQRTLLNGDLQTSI

[1] = Dynamic PET imaging of AR42J tumor bearing mice; conditions: female, BALB/c nu/nu athymic, mouse, in vivo, iv, total radioactivity; AR42J tumor, 60 min, i.v.; read-out: Tumor radiotracer uptake at 60 min by imaging
From the text: (§1) Briefly, tail veins were cannulated under general anesthesia (isofluorane).

[2] = Direct counting of tissue radioactivity (γ-counter), AR42J tumor; set-up: species or system mice; conditions: female, BALB/c nu/nu athymic, mouse, in vivo, iv, total radioactivity; AR42J tumor, after 60 min PET scan; read-out: Tumor radiotracer uptake after 60 min by γ-counting
Method: (§2) Six to eight-week old female BALB/c nu/nu athymic mice were obtained from Harlan United Kingdom Ltd (Bicester, UK). […] Tumors were established by subcutaneous. injection of 100 μl of PBS containing 1×10^6 cells. […] All samples were weighed and their radioactivity directly determined using a Cobra II Auto-gamma counter (formerly Packard Instruments Meriden CT USA) applying a decay correction. The results were expressed as a percentage of the injected dose per gram (% ID/g).

AR42J tumor = conditions: same tumor model; cited from earlier work
AR42J tumor xenografts [3] = test: Dynamic PET imaging of AR42J tumor bearing mice; conditions: mouse, in vivo; for Tumor radiotracer uptake at 60 min by imaging: iv
From the text: as §1

AR42J tumor xenografts [4] = test: Direct counting of tissue radioactivity (γ-counter), AR42J tumor; set-up: species or system mice; conditions: mouse, in vivo
Method: as §2

[5] = Protocol: The octanol/PBS partition coefficients were determined using the shake flask method. Both solvents were presaturated with each other by shaking together for 5 min. To a solution of 500 μL of both octanol and PBS was added 20 μL of radiolabelled ligand in EtOH (n=3). The solutions mixtures were shaken in a rotamixer for 5 minutes. After equilibration the mixtures were centrifuged (10 min at 13,000 rpm) to achieve good separation. Samples from each layer (25 μL) were taken and measured in a γ counter and Log D was calculated according to the formula: log D=log(cpm in octanol layer/cpm in aqueous layer). Log D values were measured using the ^18F-labelled triazole. […] The receptor affinities for [^18F]1b-6b were determined using a competitive binding assay in AR42J tumours cells with [^111In]-OctreoScan as the labeled radiotracer.
sstr-2 = sstr-2 (Homo sapiens, UniProt P30874); test: Calcium flux FLIPR assay, agonist mode, sstr-2 expressing Chem-1 cells
sstr-2, sequence (P30874 whole entry): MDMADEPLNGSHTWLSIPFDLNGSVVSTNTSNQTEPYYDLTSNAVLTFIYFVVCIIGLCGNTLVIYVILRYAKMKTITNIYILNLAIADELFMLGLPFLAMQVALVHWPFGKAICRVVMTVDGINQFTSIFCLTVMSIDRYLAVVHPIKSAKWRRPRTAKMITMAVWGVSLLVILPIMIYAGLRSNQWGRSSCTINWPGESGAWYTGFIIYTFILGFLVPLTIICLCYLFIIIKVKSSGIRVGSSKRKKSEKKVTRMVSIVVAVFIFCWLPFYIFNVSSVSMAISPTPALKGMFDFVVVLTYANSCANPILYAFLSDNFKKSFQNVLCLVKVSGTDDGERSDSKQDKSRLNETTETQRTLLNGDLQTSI

[6] = cited from earlier work
[7] = read-out: Alkyne analogue (a) IC50
[8] = [19F]-triazole, read-out: Triazole analogue (b) IC50

Q: Which IC50 (somatostatin receptor; [7]) does the source give for `C#CCCC(=O)NCCOCCOCCOCCOCCOCCOCCC(=O)N[C@H](Cc1ccccc1)C(=O)N[C@H]1CSSC[C@@H](C(=O)N[C@H](C(=O)O)[C@@H](C)O)NC(=O)[C@H]([C@@H](C)O)NC(=O)[C@H](CCCCN)NC(=O)[C@@H](Cc2c[nH]c3ccccc23)NC(=O)[C@H](Cc2ccc(O)cc2)NC1=O` [2a, E-PEG-TOCA] here?
A: The IC50 was 5.1 ± 2.1 nM.

Q: With `C#CC(=O)NCC(=O)N[C@H](Cc1ccccc1)C(=O)N[C@H]1CSSC[C@@H](C(=O)N[C@H](C(=O)O)[C@@H](C)O)NC(=O)[C@H]([C@@H](C)O)NC(=O)[C@H](CCCCN)NC(=O)[C@@H](Cc2c[nH]c3ccccc23)NC(=O)[C@H](Cc2ccc(O)cc2)NC1=O` [3a, G-TOCA] as the compound, how does the IC50 (somatostatin receptor; [7]) read?
A: Its IC50 is 1.4 ± 0.1 nM.

Q: Which IC50 (somatostatin receptor; [7]) does the source give for `C#CCCC(=O)N[C@H](Cc1ccccc1)C(=O)N[C@H]1CSSC[C@@H](C(=O)N[C@H](C(=O)O)[C@@H](C)O)NC(=O)[C@H]([C@@H](C)O)NC(=O)[C@H](CCCCN)NC(=O)[C@@H](Cc2c[nH]c3ccccc23)NC(=O)[C@H](Cc2ccc(O)cc2)NC1=O` [4a, E-TOCA] here?
A: Its IC50 is 1.8 ± 0.8 nM.

Q: Which IC50 (somatostatin receptor; [7]) does the source give for `C#CC(=O)NCCC(=O)NCC(=O)N[C@H](Cc1ccccc1)C(=O)N[C@H]1CSSC[C@@H](C(=O)N[C@H](C(=O)O)[C@@H](C)O)NC(=O)[C@H]([C@@H](C)O)NC(=O)[C@H](CCCCN)NC(=O)[C@@H](Cc2c[nH]c3ccccc23)NC(=O)[C@H](Cc2ccc(O)cc2)NC1=O` [5a, propynoyl-β-Ala-Gly-[Tyr^3]-Octreotate] here?
A: Its IC50 is 1 ± 0.3 nM.

Q: Which results are given for `C[C@@H](O)[C@H](NC(=O)[C@@H]1CSSC[C@H](NC(=O)[C@@H](Cc2ccccc2)NC(=O)CN2CCN(CC(=O)O)CCN(CC(=O)O)CCN(CC(=O)O)CC2)C(=O)N[C@@H](Cc2ccc(O)cc2)C(=O)N[C@H](Cc2c[nH]c3ccccc23)C(=O)N[C@@H](CCCCN)C(=O)N[C@@H]([C@@H](C)O)C(=O)N1)C(=O)O` [[^68Ga]DOTA-TATE, [^68Ga]-DOTATATE, metal not drawn, reference compound]?
A: tissue uptake per volume at 1 h [1]: 2.75 ± 0.11 %ID/mL; tissue uptake at 1 h [2]: 3.78 ± 0.32 %ID/g

Q: With `C[C@@H](O)[C@@H]1NC(=O)[C@H](CCCCN)NC(=O)[C@@H](Cc2c[nH]c3ccccc23)NC(=O)[C@H](Cc2ccccc2)NC(=O)[C@@H](NC(=O)[C@@H](Cc2ccccc2)NC(=O)CN(CCN(CCN(CC(=O)[O-])CC(=O)O)CC(=O)[O-])CC(=O)[O-])CSSC[C@@H](C(=O)N[C@H](CO)[C@@H](C)O)NC1=O.[111In+3]` [[^111In]-DTPA-octreotide] as the compound, how does the “Tumor uptake reported by Froidevaux et al.” value (AR42J tumor) read?
A: Its value is 3.03±0.26 % ID/g.

Q: With FET-G-PEG-TOCA [1b] as the compound, how does the “Tumor radiotracer uptake at 60 min by imaging” value (AR42J tumor xenografts [3]; 1 h) read?
A: The value was 5.36 ± 0.45 % ID/ml.

Q: And the “Tumor radiotracer uptake after 60 min by γ-counting” value (AR42J tumor xenografts [4]; iv, 1 h)?
A: The value was 8.29 ± 1.42 % ID/g.

Q: What about the “Log D” value [5] of the same compound?
A: Its value is −2.68.

Q: And the “Log D of 18F-triazole” value [5]?
A: Its value is −2.68.

Q: With FET-G-TOGA [3b] as the compound, how does the “Kidney uptake in words” value (AR42J tumor xenografts [3]) read?
A: The value was “highest”.

Q: What about the “Liver uptake in words” value (AR42J tumor xenografts [3]) of the same compound?
A: Its value is “highest liver uptake”.

Q: And the “Tumor uptake/localization in words” value (AR42J tumor xenografts [3])?
A: The value was “highest tumor uptake”.

Q: And the “Tumor radiotracer uptake at 60 min by imaging” value (AR42J tumor xenografts [3])?
A: The value was 11.0 ± 1.49 % ID/ml.

Q: What about the “Tumor radiotracer uptake after 60 min by γ-counting” value (AR42J tumor xenografts [4]) of the same compound?
A: The value was 17.04 ± 2.76 % ID/g.

Q: What about the IC50 (somatostatin receptor; [8]) of the same compound?
A: The IC50 was 4 ± 1.4 nM.

Q: And the “Log D” value [5]?
A: The value was −1.82.

Q: What about the “Log D of 18F-triazole” value [5] of the same compound?
A: The value was −1.83.

Q: Which “Kidney uptake in words” value (AR42J tumor xenografts [3]) does the source give for FET-βAG-[W-c-(CTFTYC)K] [6b] here?
A: Its value is “low”.

Q: What about the “Tumor radiotracer uptake at 60 min by imaging” value (AR42J tumor xenografts [3]; 1 h) of the same compound?
A: Its value is 0.10 ± 0.05 % ID/ml.

Q: And the “Activity/affinity on sstr-2 in words” value (sstr-2)?
A: The value was “poor affinity”.

Q: And the “Tumor radiotracer uptake after 60 min by γ-counting” value (AR42J tumor xenografts [4]; iv, 1 h)?
A: The value was 0.22 ± 0.12 % ID/g.

Q: And the “Log D” value [5]?
A: Its value is −1.14.

Q: What about the “Log D of 18F-triazole” value [5] of the same compound?
A: Its value is −1.14.

Q: Which “Liver uptake in words” value (AR42J tumor xenografts [3]) does the source give for FETE-PEG-TOGA [2b] here?
A: Its value is “highest liver uptake”.

Q: What about the “Tumor radiotracer uptake at 60 min by imaging” value (AR42J tumor xenografts [3]; 1 h) of the same compound?
A: Its value is 5.14 ± 0.40 % ID/ml.

Q: What about the “Tumor radiotracer uptake after 60 min by γ-counting” value (AR42J tumor xenografts [4]; iv, 1 h) of the same compound?
A: The value was 9.78 ± 2.57 % ID/g.

Q: What about the IC50 (somatostatin receptor; [8]) of the same compound?
A: The IC50 was 13.2 ± 7.8 nM.

Q: And the “Log D” value [5]?
A: The value was −2.77.

Q: What about the “Log D of 18F-triazole” value [5] of the same compound?
A: The value was −2.77.

Q: With FETE-TOGA [4b] as the compound, how does the “Tumor radiotracer uptake at 60 min by imaging” value (AR42J tumor xenografts [3]) read?
A: Its value is 6.11 ± 1.46 % ID/ml.

Q: And the “Tumor radiotracer uptake after 60 min by γ-counting” value (AR42J tumor xenografts [4])?
A: The value was 4.50 ± 1.51 % ID/g.

Q: What about the IC50 (somatostatin receptor; [8]) of the same compound?
A: Its IC50 is 2.9 ± 1.3 nM.

Q: What about the “Log D” value [5] of the same compound?
A: The value was −1.50.

Q: What about the “Log D of 18F-triazole” value [5] of the same compound?
A: Its value is −1.5.

Q: With [Tyr^3]octreotate as the compound, how does the Biological half life [6] read?
A: Its Biological half life is 1.5-2 hours.
